Measured values from paper PMC4764977, “AZD8797 is an allosteric non-competitive modulator of the human CX3CR1 receptor” (Biochemical Journal, 2016).
pEC50, pIC50, pKd: −log10 of the molar value.

Legend:
[1] = biological target: T1, CX3CR1 (Homo sapiens, UniProt P49238); test: Equilibrium saturation binding, CHO-hCX3CR1 membranes; design: host or cells: CHO-K1
T1 sequence (P49238 1-355): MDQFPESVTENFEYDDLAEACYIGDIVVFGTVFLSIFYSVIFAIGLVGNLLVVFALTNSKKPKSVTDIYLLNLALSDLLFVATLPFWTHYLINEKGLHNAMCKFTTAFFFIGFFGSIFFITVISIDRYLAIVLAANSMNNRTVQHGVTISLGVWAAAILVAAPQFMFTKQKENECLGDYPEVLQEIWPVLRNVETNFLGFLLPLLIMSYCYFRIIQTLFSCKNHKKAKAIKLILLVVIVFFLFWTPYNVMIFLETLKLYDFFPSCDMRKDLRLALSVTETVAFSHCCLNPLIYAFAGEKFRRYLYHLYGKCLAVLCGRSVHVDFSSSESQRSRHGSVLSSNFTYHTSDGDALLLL
Method: Cells were washed in PBS and lysed with an Ultra-Turrax Homogenizer in 50 mM Tris/HCl (pH 7.4) and 1 mM EDTA with Complete™ protease inhibitor (Roche). […] Protein concentration was determined using the BCA method (Thermo Fisher Scientific). […] The filter plate was washed in ice-cold 25 mM HEPES (pH 7.4), 5 mM MgCl2, 1 mM CaCl2 and 500 mM NaCl and dried at 50°C for 1 h. Scintillation cocktail, Optiphase Supermix (PerkinElmer) was added to each well and the radioactivity was measured using a MicroBeta Trilux reader (PerkinElmer). […] The DMSO concentration was held constant at 1%. where Kd is the radioligand dissociation constant. Saturation binding isotherms were analysed by non-linear regression and globally fitted to a hyperbolic one-site binding model taking into account both NSB and total binding to calculate the total receptor number (Bmax) and radioligand dissociation constant (Kd): […] NSB=NS·X+Background, where NS is the concentration-dependent NSB. To visualize the manner of binding of CX3CL1 and AZD8797, a diagnostic affinity ratio plot designed to compare strictly competitive behaviour with allosteric interactions was used. […] For single site competitive interactions, the resulting linear plot has the slope of 1.0. For allosteric but competitive interactions, the slope will start at 1.0 but progressively deviate from unity, eventually reaching a limit governed by the allosteric ternary complex model co-operativity factor α [21, 22].

[2] = biological target: T1, CX3CR1; test: PathHunter β-arrestin recruitment assay, CHO-K1 CX3CR1 β-arrestin cell line; assay type: cell-based; design: host or cells: CHO-K1
Method: β-Arrestin recruitment was measured using the PathHunter™ enzyme fragment complementation assay from DiscoveRx and carried out according to the manufacturer's instructions. In short, 3500 cells per well in Opti-MEM were incubated together with different concentrations of AZD8797 and CX3CL1 in a 384-well plate. After 90 min of incubation at 37°C, detection reagent was added and incubation continued for 1 h at room temperature, before reading the plate with a Victor^2 luminescence plate reader (PerkinElmer). As in the [^35S]GTPγS binding assay, the final DMSO concentration was held constant at 1%.

[3] = biological target: T2, CX3CR1 (human whole blood leucocytes) (Homo sapiens, UniProt P49238); test: Cellix flow adhesion of hWB leucocytes to full-length CX3CL1; assay type: cell-based; details: flow 2.25 dyn·cm^−2, 60 min pre-incubation, n=2, read-out: IC50, prevention of capture (adhesion) of human blood leucocytes to CX3CL1
T2 construct: hWB with heparin as anti-coagulant was collected from healthy donors; from tissue; host or cells: human whole blood leucocytes (healthy volunteers)
T2 sequence (P49238 1-355): T1 sequence (P49238 1-355)
Method: Adhesion of a human B-lymphocyte cell line (RPMI-8226) or hWB leucocytes to full-length human CX3CL1 were monitored using a microfluidics Cellix VenaFlux platform and Vena 8 Biochips (Cellix). Each channel on the Vena 8 chip was coated with anti-His monoclonal antibody (R&D Systems) followed by His-tagged full-length CX3CL1 (R&D Systems) and blocked for non-specific binding (NSB) with BSA.
Cell preparations: RPMI-8226 cells were cultured in RPMI 1640 medium with GlutaMAX and 20% FBS (HyClone, Perbio). Before the experiment, cells were centrifuged at 320 g and resuspended to 5 ×10^6 cells·ml^−1 in RPMI 1640 with 1% FBS. hWB with heparin as anti-coagulant was collected from healthy donors and 5 μM DiOC6 was added. AZD8797 was diluted in a 3-fold series in DMSO starting at 3.3 or 30 μM and pre-incubated with RPMI-8226 cells for 15 min or whole blood for 60 min. DMSO concentration held constant for all AZD8797 concentrations (0.1% for the RPMI-8226 experiments and 0.3% for the whole blood experiments). […]
RPMI-8226 cells in RPMI 1640+1% FBS or whole blood were pumped through the channels at 0.5 dyn·cm^−2 and 2.25 dyn·cm^−2 respectively, for 3 min. Images for quantification were captured using a microscope. Cells adhering to channels were counted and the mean values across five images in each channel were used for calculating the concentration–response curves.

[4] = biological target: T1, CX3CR1; test: 125I-CX3CL1 competition binding, CHO-hCX3CR1 membranes; design: host or cells: CHO-K1
Method: Adherent CHO-K1 cells stably expressing human CX3CR1 (CHO-hCX3CR1) were grown in F12 medium with GlutaMAX, 10% FBS (Sigma–Aldrich) and 400 μg·ml^−1 geneticin and harvested at 80% confluency. Cells were washed in PBS and lysed with an Ultra-Turrax Homogenizer in 50 mM Tris/HCl (pH 7.4) and 1 mM EDTA with Complete™ protease inhibitor (Roche). […] Protein concentration was determined using the BCA method (Thermo Fisher Scientific). […] The filter plate was washed in ice-cold 25 mM HEPES (pH 7.4), 5 mM MgCl2, 1 mM CaCl2 and 500 mM NaCl and dried at 50°C for 1 h. Scintillation cocktail, Optiphase Supermix (PerkinElmer) was added to each well and the radioactivity was measured using a MicroBeta Trilux reader (PerkinElmer). All analysis and calculations were performed using GraphPad Prism 6.01. Functional and competition binding data were analysed using non-linear regression and fitted to a sigmoidal dose-response with variable slope according to the following equation: […] where Y is the amount of radioligand bound (cpm) or functional effect, Top denotes maximal asymptotic binding, and Bottom denotes the minimal asymptotic binding. XC50 is either the EC50 or the IC50 value, and X is the logarithm of the test compound concentration. Ki values were calculated from IC50 values using the Cheng–Prusoff equation: […]

[5] = test system: CX3CR1; design: method as in PMID 24706865; details: cited from earlier work
[6] = biological target: T1, CX3CR1; test: [35S]GTPγS accumulation assay, CHO-hCX3CR1 membranes; assay type: biochemical; design: host or cells: CHO-K1
Method: Adherent CHO-K1 cells stably expressing human CX3CR1 (CHO-hCX3CR1) were grown in F12 medium with GlutaMAX, 10% FBS (Sigma–Aldrich) and 400 μg·ml^−1 geneticin and harvested at 80% confluency. Cells were washed in PBS and lysed with an Ultra-Turrax Homogenizer in 50 mM Tris/HCl (pH 7.4) and 1 mM EDTA with Complete™ protease inhibitor (Roche). After centrifugation at 1000 g for 10 min, membranes were collected by ultracentrifugation at 100000 g for 45 min at 4°C. The membranes were resuspended in 10 mM Tris/HCl (pH 7.4), 1 mM EDTA and 10% sucrose, divided into aliquots, frozen in liquid nitrogen and stored in −80°C. Protein concentration was determined using the BCA method (Thermo Fisher Scientific).
0.56 μCi·ml^−1 [^35S]GTPγS and EC80 of CX3CL1 were then added. The plate was incubated at 30°C for 1 h and subsequently unbound [^35S]GTPγS was separated from bound by vacuum filtration to a Printed Filtermat B (PerkinElmer) using a Skatron Micro96 harvester and dried at 50°C for 1 h. The filters were soaked with a melt-on scintillator sheet (MeltiLex, PerkinElmer), sealed using a MeltiLex heat sealer and measured in a MicroBeta Trilux reader (PerkinElmer).

[7] = increasing concentrations of unlabelled compound

CC(C)C[C@H](CO)Nc1nc(S[C@@H](C)c2ccccc2)nc2nc(N)sc12 [AZD8797]
Effect on Bmax of 125I-CX3CL1 saturation binding [1, 7]: decreased | Effect on Kd of 125I-CX3CL1 saturation binding [1, 7]: without any effect | pKd ([1]; one-site model, n=4): 7.92 | Increase of CX3CL1 efficacy in β-arrestin recruitment ([2]; 16 and 140 nM AZD8797, efficacy enhanced, not potency): ~2 fold | Effect on β-arrestin recruitment, compound alone ([2]; AZD8797 alone): no effect | CX3CL1-induced β-arrestin recruitment at higher concentrations ([2]; higher concentrations of AZD8797): almost abolished | pIC50 [3]: 6.48 | Lower potency than unlabelled CX3CL1 in displacing 125I-CX3CL1 [4]: 1000 fold | pEC50 ([4]; 10 pM 125I-CX3CL1, n=3, read-out: EC50, displacement of 125I-CX3CL1): 6.51 | Efficacy in rat model for multiple sclerosis [5]: efficacy | Agonistic effect in [35S]GTPγS accumulation ([6]; compound alone, results not shown): No agonistic effect | pIC50 ([6]; response from 2 nM CX3CL1 (EC80), n > 24, read-out: IC50, inhibition of CX3CL1-induced [35S]GTPγS accumulation): 6.47
